# In patent US20200247897A1, “THERAPEUTIC ANTIBODIES BASED ON MUTATED IGG HEXAMERS” (GENMAB B.V., priority 2017, published 2020):
# What was measured:
# [1] = tested on: BxPC-3 pancreatic cancer cells; experiment: Caspase-Glo 3/7 assay, BxPC-3; assay type: cell-based, human; details: 26.6 nM; 1, 2, 4 to 6 hours
# [2] = tested on: BxPC-3 pancreatic cancer cells; experiment: 3-days CellTiter-Glo viability assay, BxPC-3; details: Z-VAD-FMK 5 μM
# [3] = tested on: colon, pancreatic, gastric, lung and skin cancer cell lines; experiment: 3-days CellTiter-Glo viability assay, panel of different human cancer cell lines; assay type: cell-based; details: 133 nM; 11 cell lines (Example 41)
substance,measurement,setting,value
"TRAIL: natural DR5 ligand, recombinant human TRAIL/APO-2L",caspase-3/7 activation,[1],more rapid and more potent caspase-3/7 activation
same,viability of BxPC-3 cells in presence of pan-caspase inhibitor Z-VAD-FMK,[2],inhibited in the presence of pan-caspase inhibitor Z-VAD-FMK
same,killing of human cancer cell lines,[3],show killing of human cancer target cell lines originating from different indications
